Assay: Safety: adverse events (NCI-CTCAE v4.0), DLT, MTD, RP2D
Assay type: in vivo
Method: AEs were assessed using the National Cancer Institute-Common Terminology Criteria for Adverse Events (NCI-CTCAE v4.0). […] The protocol-defined GDC-0810-specific AEs of special interest (AESI) which were non-serious adverse events that required expedited reporting to the sponsor, included DLTs occurring during the DLT assessment window, grade ≥ 2 vomiting/diarrhea, grade ≥ 3 nausea, grade ≥ 2 thromboembolic events, grade ≥ 2 vaginal or uterine hemorrhage, and grade ≥ 3 elevation of ALT or AST.
Analyses of safety, pharmacokinetics, anti-tumor activity, and data from the FES-PET imaging correlative studies were planned. Confirmatory inferential analyses and imputation for missing data were not planned due to the exploratory nature of this study. Descriptive statistics were used to summarize patient data. The number of patients to be enrolled was dependent upon the observed safety and pharmacokinetic profile during dose escalations. The safety- and efficacy-evaluable population included patients who received at least one dose of the study drug. Safety was assessed through summaries of DLTs, AEs, changes in select laboratory test results, vital signs, ECGs, and changes in endometrial thickness. Objective response (with confirmation) and clinical benefit rates (CBR) were derived per RECIST v1.1 and summarized by dose level and cohort. […]
polyps, endometrial cancer, endometrial hyperplasia, and other significant disorders); any […]
disease or chronic diarrhea, short bowel syndrome, or upper gastrointestinal surgery; known human immunodeficiency virus (HIV) infection; known clinically significant history of liver disease; major surgery within 4 weeks prior to enrollment; or radiation therapy within 2 weeks […]
There were phase-specific exclusion criteria as well. In phase Ib, cohort C1 excluded patients with a history of venous thromboembolic event requiring therapeutic anticoagulation or vaginal bleeding within 2 months prior to enrollment. In phase IIa, cohorts A1 and A2 excluded patients with >1 chemotherapy in the advanced/metastatic disease setting. In phase IIa, cohort B1 excluded patients with >1 prior AI in the advanced/metastatic disease setting or prior […]
In phase IIa, cohort B2 excluded patients with >1 prior AI or >1 prior chemotherapy in the advanced/metastatic disease setting.
Patients in phase Ia in dose escalation received oral doses of GDC-0810 during 28-day cycles given once daily (QD) or twice-daily (BID), with fasting and without fasting, and with a single dose given on day −7 leading into cycle 1. The starting dose in the first cohort was 100 mg per day based on preclinical studies. Dose escalation to 200 mg and by 200 mg increments in successive cohorts occurred in the absence of dose-limiting toxicities (DLTs), or conditionally in the presence of DLTs. A DLT was defined as any adverse event (AE) occurring during the DLT window deemed by the investigator or sponsor to be related to the study drug unless they were clearly related to disease progression or other cause; DLT incidences were evaluated from day […]
patients in a dose cohort experienced a DLT, 3 additional patients were assigned to that dose; dose escalation to the next level proceeded if DLTs were experienced by ≤1 patient out of 6. If ≥2 patients experienced DLTs at a given dose, a lower dose was to be declared the maximum […]
Phase Ib was a dose-escalation study of GDC-0810 starting at 400 mg QD, as […]
Phase IIa explored the recommended phase 2 dose (RP2D) from phase Ia. All patients received GDC-0810 600 mg under non-fasting conditions. Cohorts A1 and A2 enrolled patients with tumors harboring ESR1 mutations with no prior fulvestrant use in cohort A1 while prior fulvestrant use was allowed in cohort A2. Cohorts B1 and B2 enrolled patients whose disease had progressed and who may have had one or no AI therapy; there was no prior fulvestrant use in cohort B1 while prior fulvestrant use was allowed in cohort B2.
Patients in all three study phases continued treatment until unacceptable toxicity, disease

[1] = phase 1a (n=41), grade 3, cohort 200 mg
[2] = phase 1a (n=41), grade 3, cohort 300 mg, BID
[3] = phase 1a (n=41), grade 3, cohort 600 mg
[4] = phase 1a (n=41), grade 3, cohort 800 mg, non-fasting
[5] = phase 1a (n=41), grade 4, cohort 600 mg, non-fasting
[6] = phase 1a (n=41), grade 5, cohort 600 mg, non-fasting
[7] = phase IIa A1, 600 mg QD, n = 19
[8] = phase IIa A2, 600 mg QD, n = 10
[9] = phase IIa B1, 600 mg QD, n = 53
[10] = phase IIa B2, 600 mg QD, n = 19

CC/C(=C(/c1ccc(/C=C/C(=O)O)cc1)c1ccc2[nH]ncc2c1)c1ccc(F)cc1Cl [GDC-0810]
tolerability based on frequency of gastrointestinal AEs (800 mg daily): intolerable
patients who reported SAEs regardless of attribution (across all 3 phases): 33 patients
AST increased, Grades 3–5 (all 3 study phases, N = 152): 4 (3) n (%)
AST increased, all grades (all 3 study phases, N = 152): 26 (17) n (%)
Abdominal pain, Grades 3–5 (all 3 study phases, N = 152): 3 (2) n (%)
Abdominal pain, all grades (all 3 study phases, N = 152): 28 (18) n (%)
Anemia, Grades 3–5 (all 3 study phases, N = 152): 4 (3) n (%)
Anemia, all grades (all 3 study phases, N = 152): 34 (22) n (%)
Arthralgia, Grades 3–5 (all 3 study phases, N = 152): 0 n (%)
Arthralgia, all grades (all 3 study phases, N = 152): 32 (21) n (%)
Constipation, Grades 3–5 (all 3 study phases, N = 152): 1 (1) n (%)
Constipation, all grades (all 3 study phases, N = 152): 42 (28) n (%)
Cough, Grades 3–5 (all 3 study phases, N = 152): 1 (1) n (%)
Cough, all grades (all 3 study phases, N = 152): 30 (20) n (%)
Decreased appetite, Grades 3–5 (all 3 study phases, N = 152): 0 n (%)
Decreased appetite, all grades (all 3 study phases, N = 152): 38 (25) n (%)
Diarrhea, Grades 3–5 (all 3 study phases, N = 152): 7 (5) n (%)
Diarrhea, all grades (all 3 study phases, N = 152): 95 (63) n (%)
Dyspepsia, Grades 3–5 (all 3 study phases, N = 152): 1 (1) n (%)
Dyspepsia, all grades (all 3 study phases, N = 152): 30 (20) n (%)
Fatigue, Grades 3–5 (all 3 study phases, N = 152): 6 (4) n (%)
Fatigue, all grades (all 3 study phases, N = 152): 77 (51) n (%)
Flatulence, Grades 3–5 (all 3 study phases, N = 152): 0 n (%)
Flatulence, all grades (all 3 study phases, N = 152): 29 (19) n (%)
Nausea, Grades 3–5 (all 3 study phases, N = 152): 1 (1) n (%)
Nausea, all grades (all 3 study phases, N = 152): 82 (54) n (%)
Vomiting, Grades 3–5 (all 3 study phases, N = 152): 4 (3) n (%)
Vomiting, all grades (all 3 study phases, N = 152): 47 (31) n (%)
patients experiencing ≥ 1 AE regardless of causality (all who received the study drug): All patients
dose-limiting toxicity (DLT) (dose escalation, 35-day DLT window, diarrhea, 800-mg QD): one and a DLT
ER agonist effects on the lipid profiles of patients (in vivo): no clinically significant ER agonist effects
patients who reported SAEs regardless of attribution (phase 1a): 13 n
SAE Pneumothorax (phase 1a (n=41), grade 1, cohort 800 mg, non-fasting): 1 (2%) n (%)
SAE Presyncope (phase 1a (n=41), grade 2, cohort 300 mg, BID): 1 (2%) n (%)
SAE Urinary tract infection (phase 1a (n=41), grade 3, cohort 100 mg): 1 (2%) n (%)
SAE Abdominal pain [1]: 1 (2%) n (%)
SAE Nausea [1]: 1 (2%) n (%)
SAE Vomiting [1]: 1 (2%) n (%)
SAE Skin infection [2]: 1 (2%) n (%)
SAE Venous thrombosis [2]: 1 (2%) n (%)
SAE Anemia [3]: 1 (2%) n (%)
SAE Ascites [3]: 1 (2%) n (%)
SAE Adrenal insufficiency [4]: 1 (2%) n (%)
SAE Fatigue [4]: 1 (2%) n (%)
SAE Pulmonary embolism (phase 1a (n=41), grade 4, cohort 300 mg, BID, related to study drug): 1 (2%) n (%)
SAE Thrombocytopenia (phase 1a (n=41), grade 4, cohort 600 mg): 1 (2%) n (%)
SAE Cardiac arrest [5]: 1 (2%) n (%)
SAE Hyponatremia [5]: 1 (2%) n (%)
SAE Cardiac failure [6]: 1 (2%) n (%)
SAE Metastases to peritoneum [6]: 1 (2%) n (%)
SAE Blood bilirubin increased (phase 1a (n=41), grade 5, cohort 800 mg): 1 (2%) n (%)
patients who reported SAEs regardless of attribution (phase 1b): 3 n
patients who reported SAEs regardless of attribution (phase 2a): 17 n
deaths (phase IIa): 3 deaths
AST increased, Grades 3–5 [7]: 0 n (%)
AST increased, all grades [7]: 1 (5) n (%)
Abdominal pain, Grades 3–5 [7]: 1 (5) n (%)
Abdominal pain, all grades [7]: 3 (16) n (%)
Anemia, Grades 3–5 [7]: 0 n (%)
Anemia, all grades [7]: 2 (11) n (%)
Arthralgia, Grades 3–5 [7]: 0 n (%)
Arthralgia, all grades [7]: 4 (21) n (%)
Constipation, Grades 3–5 [7]: 0 n (%)
Constipation, all grades [7]: 2 (11) n (%)
Cough, Grades 3–5 [7]: 0 n (%)
Cough, all grades [7]: 2 (11) n (%)
Decreased appetite, Grades 3–5 [7]: 0 n (%)
Decreased appetite, all grades [7]: 6 (32) n (%)
Diarrhea, Grades 3–5 [7]: 0 n (%)
Diarrhea, all grades [7]: 10 (53) n (%)
Dyspepsia, Grades 3–5 [7]: 0 n (%)
Dyspepsia, all grades [7]: 6 (31) n (%)
Fatigue, Grades 3–5 [7]: 0 n (%)
Fatigue, all grades [7]: 8 (42) n (%)
Flatulence, Grades 3–5 [7]: 0 n (%)
Flatulence, all grades [7]: 4 (21) n (%)
Nausea, Grades 3–5 [7]: 0 n (%)
Nausea, all grades [7]: 8 (42) n (%)
Vomiting, Grades 3–5 [7]: 2 (11) n (%)
Vomiting, all grades [7]: 8 (42) n (%)
AST increased, Grades 3–5 [8]: 0 n (%)
AST increased, all grades [8]: 2 (20) n (%)
Abdominal pain, Grades 3–5 [8]: 0 n (%)
Abdominal pain, all grades [8]: 0 n (%)
Anemia, Grades 3–5 [8]: 1 (10) n (%)
Anemia, all grades [8]: 2 (20) n (%)
Arthralgia, Grades 3–5 [8]: 0 n (%)
Arthralgia, all grades [8]: 0 n (%)
Constipation, Grades 3–5 [8]: 0 n (%)
Constipation, all grades [8]: 0 n (%)
Cough, Grades 3–5 [8]: 0 n (%)
Cough, all grades [8]: 1 (10) n (%)
Decreased appetite, Grades 3–5 [8]: 0 n (%)
Decreased appetite, all grades [8]: 3 (30) n (%)
Diarrhea, Grades 3–5 [8]: 1 (10) n (%)
Diarrhea, all grades [8]: 5 (50) n (%)
Dyspepsia, Grades 3–5 [8]: 1 (10) n (%)
Dyspepsia, all grades [8]: 2 (20) n (%)
Fatigue, Grades 3–5 [8]: 0 n (%)
Fatigue, all grades [8]: 2 (20) n (%)
Flatulence, Grades 3–5 [8]: 0 n (%)
Flatulence, all grades [8]: 0 n (%)
Nausea, Grades 3–5 [8]: 0 n (%)
Nausea, all grades [8]: 6 (60) n (%)
Vomiting, Grades 3–5 [8]: 0 n (%)
Vomiting, all grades [8]: 4 (40) n (%)
AST increased, Grades 3–5 [9]: 2 (4) n (%)
AST increased, all grades [9]: 4 (8) n (%)
Abdominal pain, Grades 3–5 [9]: 1 (2) n (%)
Abdominal pain, all grades [9]: 10 (19) n (%)
Anemia, Grades 3–5 [9]: 1 (2) n (%)
Anemia, all grades [9]: 6 (11) n (%)
Arthralgia, Grades 3–5 [9]: 0 n (%)
Arthralgia, all grades [9]: 14 (26) n (%)
Constipation, Grades 3–5 [9]: 1 (2) n (%)
Constipation, all grades [9]: 16 (30) n (%)
Cough, Grades 3–5 [9]: 1 (2) n (%)
Cough, all grades [9]: 8 (15) n (%)
Decreased appetite, Grades 3–5 [9]: 0 n (%)
Decreased appetite, all grades [9]: 9 (17) n (%)
Diarrhea, Grades 3–5 [9]: 5 (9) n (%)
Diarrhea, all grades [9]: 29 (55) n (%)
Dyspepsia, Grades 3–5 [9]: 0 n (%)
Dyspepsia, all grades [9]: 6 (11) n (%)
Fatigue, Grades 3–5 [9]: 2 (4) n (%)
Fatigue, all grades [9]: 27 (51) n (%)
Flatulence, Grades 3–5 [9]: 0 n (%)
Flatulence, all grades [9]: 13 (25) n (%)
Nausea, Grades 3–5 [9]: 0 n (%)
Nausea, all grades [9]: 24 (45) n (%)
Vomiting, Grades 3–5 [9]: 1 (2) n (%)
Vomiting, all grades [9]: 14 (26) n (%)
AST increased, Grades 3–5 [10]: 0 n (%)
AST increased, all grades [10]: 1 (5) n (%)
Abdominal pain, Grades 3–5 [10]: 0 n (%)
Abdominal pain, all grades [10]: 1 (5) n (%)
Anemia, Grades 3–5 [10]: 1 (5) n (%)
Anemia, all grades [10]: 4 (21) n (%)
Arthralgia, Grades 3–5 [10]: 0 n (%)
Arthralgia, all grades [10]: 0 n (%)

Source: publication PMC9823088, “The oral selective estrogen receptor degrader GDC-0810 (ARN-810) in postmenopausal women with hormone receptor-positive HER2-negative (HR + /HER2 −) advanced/metastatic breast cancer” (Breast Cancer Research and Treatment, 2022)
